Data reported in patent publication US20210315887A1, “METHODS OF ADMINISTERING THERAPY” (GALAPAGOS NV, priority 2018, published 2021).
“Also recorded” adds a separate entry of the source. Where two headings read alike, the source gives them in different places.

Experiment: Phase I open-label drug-drug interaction study: single-dose plasma pharmacokinetics of compound 1 before and after repeat doses of rifampicin
Type: in vivo, human
Conditions: for Mean maximal compound 1 plasma concentration: from mean concentration-time profile; for Cmax / AUC(0-t): po, 600 mg; for Cmax: healthy male subjects; for concentration at 24 h: read-out: C24h
Protocol: A phase I, open-label, non-randomized, drug-drug interaction study in healthy male subjects is done to evaluate the impact of repeat doses of rifampicin, on the single-dose pharmacokinetics (PK) of compound 1 as well as to evaluate the safety and tolerability of a single dose of compound 1 administered before or after oral doses of rifampicin.
Eighteen healthy male subjects received a single oral dose of 600 mg compound 1 on Day 1. From Days 2 to 11, 600 mg rifampicin was administered once daily (q.d.) to all subjects for 10 consecutive days. On Day 12, subjects received a single oral dose of 600 mg of compound 1 (see Table 1). A follow-up visit is conducted between days 15 and 18.
On days 1, 2, 12, 13 (i.e. 1, 2, 3, 4, 5, 6, 7, 8, 12 and 24 hours post compound 1 administration on day 1 and day 12) and at the follow-up visit, blood samples for PK assessment of compound 1 are taken. Blood samples of 2 mL for the determination of compound 1 levels in plasma are collected by venipuncture (or indwelling catheter) in the arm, into vacuum tubes containing lithium heparin and are immediately chilled (ice bath).
Within 30 min after blood collection, the plasma is separated by centrifugation at 4° C. for 10 min at circa 1,500 g and transferred into 2 polypropylene tubes with at least 400 μL of plasma in the first aliquot and the remaining volume in the second aliquot. After appropriate labeling, the plasma samples are stored in the clinical center at −20° C.±10° C. within 2 h following centrifugation and are protected from direct sunlight.
Plasma concentrations were measured using validated liquid chromatography with tandem mass (LC/MS-MS) spectrometry methods with a limit of quantification of 1.00 ng/mL for compound 1, 20.0 mg/mL for cholesterol and 5.00 ng/mL for 4-β-hydroxycholesterol. Non-compartmental PK calculations are performed using Phoenix WinNonlin® (version 6.4).
The following parameters are determined for compound 1 from individual concentration-time profiles in plasma: • Cmax: maximum observed plasma concentration • tmax: time of occurrence of Cmax • AUC0-t: area under the plasma concentration-time curve from time zero till the time corresponding with the last observed quantifiable concentration, calculated by the linear up-logarithmic down trapezoidal rule • AUC0-24h: area under the plasma concentration-time curve from time zero till 24 h post-dose, calculated by the linear up-logarithmic down trapezoidal rule • C24h: plasma concentration observed at 24 h post-dose
Plasma concentrations and PK parameters of compound 1 are listed by day (Day 1: compound 1 before multiple rifampin doses; Day 12: compound 1 after multiple rifampin doses) for each subject. Descriptive statistics are calculated by day for the plasma concentration and PK parameters. Mean (±SE) concentration-time profiles are generated by day.
A mixed-effects model with day as fixed effect and subject as random effect is performed on the following natural log (ln)-transformed PK parameters of compound 1: Cmax, C24h, AUC0-t, and AUC0-24h. […] The 90% confidence interval (CI) of the point estimate is calculated using the mean square error of the analysis of variance.
As tmax is a discrete variable dependent on selected blood sampling times, day effect was assessed using a non-parametric test (Wilcoxon's signed-rank test).

[1] = point estimate of least-squares geometric means ratio, Day 12 relative to Day 1
[2] = rifampin 600 mg q.d. for 10 days, Day 12 vs Day 1

- Time post-dose at which mean maximal concentration is attained (Day 1, single 600 mg oral dose): 2 h
- Mean maximal compound 1 plasma concentration (Day 1, single 600 mg oral dose): 7,870 ng/mL
- Time post-dose at which mean maximal concentration is attained (Day 12, after multiple rifampin doses): 2 h
- Mean maximal compound 1 plasma concentration (Day 12, single 600 mg oral dose after rifampin 600 mg q.d. 10 days): 1,180 ng/mL
- Impact of multiple rifampin intake on compound 1 clearance (Day 12 compared with Day 1): no impact
- Impact of multiple rifampin intake on apparent rate of elimination of compound 1 (Day 12 compared with Day 1, visual inspection of profiles): no impact
- Decrease of AUC0-24h by multiple rifampin intake (Day 12 vs Day 1): 89.2%
- Decrease of Cmax by multiple rifampin intake (Day 12 vs Day 1): 83.2%
- Bioavailability of compound 1 after multiple rifampin intake (as shown by point estimates, Day 12 vs Day 1): markedly lower
- Elimination of compound 1 (shape of log-linear mean concentration-time profile) (before and after multiple rifampin intake): biphasic
- Cmax (male, human, plasma, single oral 600 mg compound 1, after multiple rifampin doses 600 mg q.d. 10 days (Day 12), N = 18, arithmetic mean): 1440 ng/mL
- Cmax (male, human, plasma, single oral 600 mg compound 1, before multiple rifampin doses (Day 1), N = 18, arithmetic mean): 8660 ng/mL
- AUC(0-t) (male, human, plasma, single oral 600 mg, after multiple rifampin doses (Day 12), N = 17, arithmetic mean, read-out: AUC0-24h): 3750 ng·h/mL
- AUC(0-t) (male, human, plasma, single oral 600 mg, after multiple rifampin doses (Day 12), N = 18, arithmetic mean, read-out: AUC0-t): 3570 ng·h/mL
- AUC(0-t) (male, human, plasma, single oral 600 mg, before multiple rifampin doses (Day 1), N = 18, arithmetic mean, read-out: AUC0-24h): 36300 ng·h/mL
- AUC(0-t) (male, human, plasma, single oral 600 mg, before multiple rifampin doses (Day 1), N = 18, arithmetic mean, read-out: AUC0-t): 36300 ng·h/mL
- concentration at 24 h (male, human, plasma, single oral 600 mg, after multiple rifampin doses (Day 12), N = 18, arithmetic mean): 1.69 ng/mL
- concentration at 24 h (male, human, plasma, single oral 600 mg, before multiple rifampin doses (Day 1), N = 18, arithmetic mean): 83.4 ng/mL
- Tmax (male, human, plasma, single oral 600 mg, before multiple rifampin doses (Day 1), N = 18, median): 2 h
- AUC0-24h Comparison (PE %) [1]: 10.75%
- AUC0-t Comparison (PE %) [1]: 10.24%
- C24h Comparison (PE %) [1]: 2.48%
- Cmax Comparison (PE %) [1]: 16.78%
- Decrease of AUC0-24h by multiple rifampin intake [2]: 9.3 fold
- Decrease of Cmax by multiple rifampin intake [2]: 6.0 fold
SMILES: CCc1nc2c(C)cc(N3CCN(CC(=O)N4CC(O)C4)CC3)cn2c1N(C)c1nc(-c2ccc(F)cc2)c(C#N)s1 [Compound 1]
- Day effect (rifampin) on tmax (statistical analysis Day 12 vs Day 1): no significant effect; also recorded: no significant impact
